Test results reported in patent US20260207759A1, “COMPOSITION OF CD40-BINDING MOLECULE AND PHARMACEUTICAL USE THEREOF” (SUZHOU SUNCADIA BIOPHARMACEUTICALS CO., LTD., priority 2022, published 2026).

System: human CD40 transgenic mice
Assay: Mouse T cell-dependent humoral immune response (TDAR) model, anti-KLH specific IgG
Format: in vivo
Settings: 0.3 mpk BIW ip, hCD40 transgenic mice (IgG1 control 1 mg/kg)
Protocol: On day 0 of the experiment, one of the mice in each group was subjected to blood collection followed by intraperitoneal injection. On day 1, each mouse was intraperitoneally injected with 50 μg of KLH (KLH:complete Freund's adjuvant (CFA)=1:1 emulsified immune complex) for immunization. On day 15 of the experiment, each mouse was intraperitoneally injected with 50 μg of KLH (KLH:incomplete Freund's adjuvant (IFA)=1:1 emulsified immune complex) for a second immunization. Each group was intraperitoneally injected twice a week, and blood samples of about 150 μL were collected from the orbital venous plexus on days 7, 14, 21, and 28. Whole blood was left to stand at room temperature for 1-4 h and centrifuged at 7000 rpm at 4° C. for 10 min to separate serum, and the serum was stored at −80° C. for later use.
Mouse serum was separated weekly and assayed by ELISA for the anti-KLH specific IgG level.

CFZ533: anti-CD40 antagonistic antibody CFZ533 (i.e., iscalimab), positive control, variable regions from U.S. Pat. No. 8,277,810B
anti-KLH specific IgG, Day 7: 0.04 ± 0.01
anti-KLH specific IgG, Day 14: 30.9 ± 10.8
anti-KLH specific IgG, Day 21: 845 ± 423
anti-KLH specific IgG, Day 28: 3043 ± 1600
